These results are taken from publication PMC7181047, “Flame-Made Calcium Phosphate Nanoparticles with High Drug Loading for Delivery of Biologics” (Molecules, 2020).

The target of series [1] is T1, Proteinase K (Parengyodontium album, UniProt P06873).
T1 construct: purchased Qiagen, Hilden, Germany
Nature of the series: Proteinase K degradation assay (SDS-PAGE). It is filed as in vitro ADME. The conditions noted are these: 0.5 µg LL-37, 20 ng Proteinase K, 20 mM Tris-HCl pH 8.0, 37 °C, up to 240 min, at least three repetitions. How it is done:
A total of 0.5 µg LL-37, either loaded on nanoparticles or not, was subjected to Proteinase K degradation assay. Input samples were taken without Proteinase K added, as a positive control and is considered to be “100%” when calculating protein amounts. LL-37 was incubated in 20 mM Tris-HCl, pH 8.0 with a total of 20 ng Proteinase K (Qiagen, Hilden, Germany) added to the reaction. Samples were incubated at 37 °C until given timepoints where the reaction was stopped by the addition of SDS loading buffer (at a final concentration of 50 mM Tris-HCl pH 6.8, 2% SDS, 10% glycerol, 1% β-mercaptoethanol, 12.5 mM EDTA and 0.02% Bromophenol blue) and samples were then immediately boiled for 10 min at 98 °C.
Samples were loaded onto a NuPAGE 4%–12% Bis-Tris gel (Invitrogen, Carlsbad, CA, USA) and run in MES-buffer (Invitrogen) at 40 mA/gel. Since LL-37 is a small peptide, samples were run only halfway through the gel. The gels where then washed in Mill-Q water 3 times, 10 min before immersion in Imperial Protein Stain (Thermo Scientific) for 1 h. After that Mill-Q water was used to destain the gels before image acquisition on GelDoc XRS+ (Bio-Rad, Hercules, CA, USA). Bands were quantified using Image Studio Lite v. 5.2 (LI-COR Biosciences, Lincoln, NE, USA).

For series [2], the target named is T1, Proteinase K. The arrangement: method as in PMID 10417311. As to conditions: after 2 h; cited from earlier work.
Experimental: In order to assess the enzymatic degradation of LL-37 and the protective potential from the CaPS nanocarriers, a degradation assay utilizing Proteinase K was performed (Sodium Dodecyl Sulfate–Polyacrylamide Gel Electrophoresis, SDS-PAGE).

T1 sequence (P06873 106-384): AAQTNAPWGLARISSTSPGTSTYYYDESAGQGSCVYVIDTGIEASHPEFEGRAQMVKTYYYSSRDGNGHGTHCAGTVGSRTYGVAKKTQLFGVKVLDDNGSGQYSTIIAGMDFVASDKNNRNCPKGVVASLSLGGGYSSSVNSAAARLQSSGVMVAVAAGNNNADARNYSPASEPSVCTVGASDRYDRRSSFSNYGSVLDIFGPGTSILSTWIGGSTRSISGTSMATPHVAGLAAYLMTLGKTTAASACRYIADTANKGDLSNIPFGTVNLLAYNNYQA

Take `CC[C@H](C)[C@H](NC(=O)[C@H](CCCCN)NC(=O)[C@H](CCC(=O)O)NC(=O)[C@H](CCCCN)NC(=O)[C@H](CO)NC(=O)[C@H](CCCCN)NC(=O)[C@H](CCCNC(=N)N)NC(=O)[C@H](Cc1ccccc1)NC(=O)[C@H](Cc1ccccc1)NC(=O)[C@H](CC(=O)O)NC(=O)CNC(=O)[C@H](CC(C)C)NC(=O)[C@@H](N)CC(C)C)C(=O)NCC(=O)N[C@@H](CCCCN)C(=O)N[C@@H](CCC(=O)O)C(=O)N[C@@H](Cc1ccccc1)C(=O)N[C@@H](CCCCN)C(=O)N[C@@H](CCCNC(=N)N)C(=O)N[C@H](C(=O)N[C@H](C(=O)N[C@@H](CCC(N)=O)C(=O)N[C@@H](CCCNC(=N)N)C(=O)N[C@H](C(=O)N[C@@H](CCCCN)C(=O)N[C@@H](CC(=O)O)C(=O)N[C@@H](Cc1ccccc1)C(=O)N[C@@H](CC(C)C)C(=O)N[C@@H](CCCNC(=N)N)C(=O)N[C@@H](CC(N)=O)C(=O)N[C@@H](CC(C)C)C(=O)N[C@H](C(=O)N1CCC[C@H]1C(=O)N[C@@H](CCCNC(=N)N)C(=O)N[C@H](C(=O)N[C@@H](CCC(=O)O)C(=O)N[C@@H](CO)C(=O)O)[C@@H](C)O)C(C)C)[C@@H](C)CC)C(C)C)[C@@H](C)CC` [LL-37]: the “incubation time after which the LL-37 band (4.5 kDa) starts fading” value on Proteinase K [1] worked out at 20 min. Besides, the uncleaved peptide on Proteinase K [2] is on record as ~ 5%.
